# Measurements published in PMC6787355, “Purification, kinetic characterization, and site-directed mutagenesis of Methanothermobacter thermautotrophicus RFAP Synthase Produced in Escherichia coli” (AIMS Microbiology, 2019).
# Substitutions are numbered along the chain they refer to. Names may count otherwise. “And” between values parts separate entries of the source, which are not always exact repeats. Equal entries are not always repeated. Where two headings read alike, the source gives them in different places.
# B1: wild-type M. thermautotrophicus RFAP synthase (MTH0830) produced in E. coli (Methanothermobacter thermautotrophicus str. Delta H) (protein)
# chain: MVIELIINTPSRLHLTLIDLNGERGRLDGGVGITLNEPELVVGLEASDDMGVEFTSHAEGKLREEYRSKIMEAARRTLKHIGSDEKFHFTVRSMFPAHSGLGSGTQLSLATARLVAEYHGMKFTARELAHIVGRGGTSGIGVASFEDGGFIVDAGHSSREKSDFLPSSASSASPPPVIARYDFPEEWNIIIAIPEIDRSVSGRREVNIFQEYCPLPLRDVERLSHIILMKMMPAILEGDIEAFGESVNEIQGTGFKRIERELQDPLIDRIIDSMISAGAPGAGMSSFGPAVYSVTDEKPGNVAGAVAEIMGPGRIIVTGGRNRGAFMIK
# B2: MTH0830 RFAP synthase R26K variant (Methanothermobacter thermautotrophicus str. Delta H; R26K) (protein)
# chain: B1 chain with R26K
# B3: MTH0830 RFAP synthase D19N variant (Methanothermobacter thermautotrophicus str. Delta H; D19N) (protein)
# chain: B1 chain with D19N
# Key:
# [1] = target: wild-type MTH0830 RFAP synthase (Methanothermobacter thermautotrophicus, UniProt O26918); assay: Isothermal titration calorimetry, wild-type enzyme; format: binding; conditions: ITC, 35 °C
# Experimental: (§1) The ITC conditions previously established for M. jannaschii RFAP synthase were modified for the RFAP synthase from M. thermautotrophicus. Partially purified wild-type (heat-treated at 65 °C) and variant (heat-treated at 50 °C) RFAP synthases (2–5 mL) were dialyzed against two changes of buffer (250 mL each of 50 mM Tris, 100 mM NaCl, pH 7.6). […] All ITC measurements were carried out using a NANO-ITC isothermal titration calorimeter (TA Instruments, New Castle, DE).
# (§2) Following an 1800 s delay, 10 injections of 5 µL of PRPP each were added every 240 seconds with stirring at 300 rpm.
# [2] = target: T1, MTH0830 RFAP synthase D19N variant (Methanothermobacter thermautotrophicus, UniProt O26918, D19N); assay: Isothermal titration calorimetry, D19N variant; format: binding
# T1 sequence (O26918 1-329 D19N): B1 chain with D19N
# Experimental: as §1, §2
# [3] = target: T2, MTH0830 RFAP synthase R26K variant (Methanothermobacter thermautotrophicus, UniProt O26918, R26K); assay: Isothermal titration calorimetry, R26K variant; format: binding
# T2 sequence (O26918 1-329 R26K): B1 chain with R26K
# Experimental: as §1, §2
# [4] = target: RFAP synthase from M. jannaschii; set-up: method as in PMID 15262968; conditions: read-out: binding constant (KD) for PRPP; cited from earlier work
# [5] = target: Methanothermobacter thermautotrophicus β-ribofuranosylaminobenzene 5′-phosphate (RFAP) synthase, wild type, recombinant (Methanothermobacter thermautotrophicus); assay: SEC; Superdex 75 gel filtration column in 50 mM TES, 150 mM KCl, 2 mM DTT, ambient temperature; enzyme eluted after 19 min, corresponding to 68.7 kDa; subunit size from SDS-PAGE
# [6] = target: T3, wild-type M. thermautotrophicus RFAP synthase (MTH0830) produced in E. coli (Methanothermobacter thermautotrophicus, UniProt O26918); assay: RFAP synthase enzyme assay (azo-dye derivative of RFAP), wild-type recombinant enzyme; format: biochemical; conditions: for Vmax / Km: 8.8 mM PRPP; for Km: read-out: KM for pABA
# T3 sequence (O26918 1-329): B1 chain
# Experimental: RFAP synthase activity was determined by producing the azo-dye derivative of the product RFAP as described previously [1],[17]. […] From this point on, the amount of enzyme used in activity assays was within the linear range of 8 to 12 µg. […] All assays were carried out under optimal enzymatic conditions in 70 mM PIPES (pH 6.8), 2 mM DTT at 70 °C for 1 h.
# [7] = system: RFAP synthase from M. thermophila; conditions: read-out: apparent KM for pABA; cited from earlier work
# [8] = system: RFAP synthase from M. jannaschii; set-up: method as in PMID 9698382, PMID 15262968; conditions: read-out: apparent KM for pABA; cited from earlier work
# [9] = two acidic pKa values; cited from earlier work
# [10] = substrate: Nc1ccc(C(=O)O)cc1; assay: purified protein, by the assay type
# [11] = substrate: Nc1ccc(C(=O)O)cc1; assay: RFAP synthase enzyme assay, R26K variant; format: biochemical, Methanothermobacter thermautotrophicus; conditions: other: 50 °C, 3 h, pH 6.8, 8.8 mM PRPP
# Experimental: RFAP synthase activity was determined by producing the azo-dye derivative of the product RFAP as described previously,[17]. […] From this point on, the amount of enzyme used in activity assays was within the linear range of 8 to 12 µg. […] All assays were carried out under optimal enzymatic conditions in 70 mM PIPES (pH 6.8), 2 mM DTT at 70 °C for 1 h.
# Due to the inability of the variants to function at 70 °C, the enzymatic assays comparing variant and wild-type kinetics were run in 70 mM PIPES (pH 6.8) with 2 mM DTT at 50 °C for three hours using a single time-point assay. This is the time period over which the enzyme activities were linear at the lower temperature of 50 °C. For these kinetic studies, the wild-type enzyme was purified in the same manner as the variants and was also examined at 50 °C for three hours.
molecule,measurement,setting,value
"O=P(O)(O)OC[C@H]1OC(OP(=O)(O)OP(=O)(O)O)[C@H](O)[C@@H]1O (some centres unmarked) [PRPP, phosphoribosyl-pyrophosphate]",Kd,[1]; read-out: KD for PRPP,2.1 ± 0.11 mM
same,Kd,[2],2 ± 0.3 mM
same,Kd,[3],2.4 ± 0.25 mM
same,Kd,[4],2 mM
"Methanothermobacter thermautotrophicus β-ribofuranosylaminobenzene 5′-phosphate (RFAP) synthase, wild type, recombinant (enzyme)",stoichiometry N,[5],2
"Nc1ccc(C(=O)O)cc1 [pABA, p-aminobenzoic acid]",Vmax,"[6]; 50 °C, 3 h, pABA varied, partially purified",1.45 nmol/min/mg and 1.5 nmol/min/mg
same,Vmax,"[6]; 70 °C, pABA varied 181 µM to 36 mM",approximately 190 nmol/min/mg protein
same,fold higher KM compared to previous homologs,[6]; near neutral conditions versus homologs with pH optimum at 5.3,26 fold
same,Km,"[6]; 50 °C, 3 h, pH 6.8, partially purified without heat step",3.9 mM
same,Km,"[6]; 70 °C, pH 6.8, 1 h, 17.6 mM MgCl2, enzyme purified through Mono Q",4.5 mM
same,Kd,[1]; in presence of saturating PRPP,0.96 ± 0.65 mM
same,Km,[7],0.058 mM
same,Km,[8],0.15 mM
same,acidic pKa,[9],4.65 and 4.80
B1,Km,"[10]; other: 50 °C, 3 h, pH 6.8, 8.8 mM PRPP, partially purified without heat step, 50.0 °C",3.9 mM
same,Km,"[10]; other: 70 °C, pH 6.8, 1 h, 8.8 mM PRPP, 17.6 mM MgCl2, enzyme purified through Mono Q, 70.0 °C",4.5 mM
same,Km,"[10]; other: enzymatic assays, summary of Figure 3 and Table 2, pH 6.8",4 mM
B2,Km,[11],38 mM
same,Vmax,[11],0.005 µmol/min/mg
B3,Km,"[10]; other: 50 °C, 3 h, pH 6.8, 8.8 mM PRPP",12 mM
